Data taken from PubChem BioAssay (NCI).
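Grown in 96-well plates, cells were treated for 48 hours with each compound at five concentrations. Insufficient inhibition: endpoint recorded as highest concentration tested. Abbreviation: GI50, concentration required for 50% inhibition of growth. TGI: total growth inhibition.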

Legend:
Test in all cases: growth of human tumour cells (NCI), 48 h
786-0 renal = tested on: 786-0 renal
A498 renal = tested on: A498 renal
A549 NSCLC = tested on: A549 NSCLC
ACHN renal = tested on: ACHN renal
BT-549 breast = tested on: BT-549 breast
CAKI-1 renal = tested on: CAKI-1 renal
CCRF-CEM leukemia = tested on: CCRF-CEM leukemia
COLO 205 colon = tested on: COLO 205 colon
DU-145 prostate = tested on: DU-145 prostate
EKVX NSCLC = tested on: EKVX NSCLC
HCC-2998 colon = tested on: HCC-2998 colon
HCT-116 colon = tested on: HCT-116 colon
HCT-15 colon = tested on: HCT-15 colon
HL-60(TB) leukemia = tested on: HL-60(TB) leukemia
HOP-62 NSCLC = tested on: HOP-62 NSCLC
HOP-92 NSCLC = tested on: HOP-92 NSCLC
HS 578T breast = tested on: HS 578T breast
HT29 colon = tested on: HT29 colon
IGROV1 ovarian = tested on: IGROV1 ovarian
K-562 leukemia = tested on: K-562 leukemia
KM12 colon = tested on: KM12 colon
LOX IMVI melanoma = tested on: LOX IMVI melanoma
M14 melanoma = tested on: M14 melanoma
MALME-3M melanoma = tested on: MALME-3M melanoma
MDA-MB-231 breast = tested on: MDA-MB-231 breast
MDA-MB-435 = tested on: MDA-MB-435
MOLT-4 leukemia = tested on: MOLT-4 leukemia
NCI-H226 lung = tested on: NCI-H226 lung

What does the source list for `COc1ccc2[nH]c(C(=O)OCc3ccc4c(Cl)cc(Cl)c(O)c4n3)cc2c1`?
GI50 (786-0 renal): 1300 nM; TGI (786-0 renal): 2600 nM; GI50 (A498 renal): 1910 nM; TGI (A498 renal): 3730 nM; GI50 (A549 NSCLC): 1670 nM; TGI (A549 NSCLC): 3400 nM; GI50 (ACHN renal): 1080 nM; TGI (ACHN renal): 2260 nM; GI50 (BT-549 breast): 1210 nM; TGI (BT-549 breast): 2560 nM; GI50 (CAKI-1 renal): 768 nM; TGI (CAKI-1 renal): 2130 nM; GI50 (CCRF-CEM leukemia): 312 nM; TGI (CCRF-CEM leukemia): 2080 nM; GI50 (COLO 205 colon): 1130 nM; TGI (COLO 205 colon): 2560 nM; GI50 (DU-145 prostate): 1330 nM; TGI (DU-145 prostate): 2610 nM; GI50 (EKVX NSCLC): 1450 nM; TGI (EKVX NSCLC): 2880 nM; GI50 (HCC-2998 colon): 1640 nM; TGI (HCC-2998 colon): 3290 nM; GI50 (HCT-116 colon): 436 nM; TGI (HCT-116 colon): 1650 nM; GI50 (HCT-15 colon): 698 nM; TGI (HCT-15 colon): 2440 nM; GI50 (HL-60(TB) leukemia): 1500 nM; TGI (HL-60(TB) leukemia): 3840 nM; GI50 (HOP-62 NSCLC): 1330 nM; TGI (HOP-62 NSCLC): 2800 nM; GI50 (HOP-92 NSCLC): 456 nM; TGI (HOP-92 NSCLC): 1990 nM; GI50 (HS 578T breast): 1280 nM; TGI (HS 578T breast): 3810 nM; GI50 (HT29 colon): 778 nM; TGI (HT29 colon): 2320 nM; GI50 (IGROV1 ovarian): 601 nM; TGI (IGROV1 ovarian): 1950 nM; GI50 (K-562 leukemia): 355 nM; TGI (K-562 leukemia): 3050 nM; GI50 (KM12 colon): 1760 nM; TGI (KM12 colon): 3490 nM; GI50 (LOX IMVI melanoma): 907 nM; TGI (LOX IMVI melanoma): 2220 nM; GI50 (M14 melanoma): 1440 nM; TGI (M14 melanoma): 2910 nM; GI50 (MALME-3M melanoma): 1480 nM; TGI (MALME-3M melanoma): 2820 nM; GI50 (MDA-MB-231 breast): 1020 nM; TGI (MDA-MB-231 breast): 2180 nM; GI50 (MDA-MB-435): 1130 nM; TGI (MDA-MB-435): 2450 nM; GI50 (MOLT-4 leukemia): 1030 nM; TGI (MOLT-4 leukemia): 3720 nM; GI50 (NCI-H226 lung): 1420 nM; TGI (NCI-H226 lung): 3070 nM
